Measured values from patent US7074789B2, “Kinase inhibitors” (Amgen Inc., priority 1999, dated 2006).
Where two headings read alike, the source gives them in different places.

What was measured:
Assay type in all cases: biochemical
Lck = molecular target: T1, Lck (Homo sapiens, UniProt P06239); assay: Kinase inhibition assay (33P transfer), Lck; conditions: read-out: Lck-1
T1 construct: Kinases are expressed as either kinase domains or full length constructs; made in house
Method in brief: (§1)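 Liquid scintillation counting of 33P on plate-bound synthetic substrates gives kinase activity. Plates are washed in 0.5% phosphoric acid first; kinases are tagged recombinant proteins from E. coli or baculovirus-infected High Five cells.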

Lyn = molecular target: T2, Lyn (Homo sapiens, UniProt P07948); assay: Kinase inhibition assay (33P transfer), Lyn; conditions: Table 6, Lyn-1 kinase inhibition class
T2 construct: Kinases are expressed as either kinase domains or full length constructs; made in house
T2 sequence (P07948 whole entry, species assumed, the tested form may be a part): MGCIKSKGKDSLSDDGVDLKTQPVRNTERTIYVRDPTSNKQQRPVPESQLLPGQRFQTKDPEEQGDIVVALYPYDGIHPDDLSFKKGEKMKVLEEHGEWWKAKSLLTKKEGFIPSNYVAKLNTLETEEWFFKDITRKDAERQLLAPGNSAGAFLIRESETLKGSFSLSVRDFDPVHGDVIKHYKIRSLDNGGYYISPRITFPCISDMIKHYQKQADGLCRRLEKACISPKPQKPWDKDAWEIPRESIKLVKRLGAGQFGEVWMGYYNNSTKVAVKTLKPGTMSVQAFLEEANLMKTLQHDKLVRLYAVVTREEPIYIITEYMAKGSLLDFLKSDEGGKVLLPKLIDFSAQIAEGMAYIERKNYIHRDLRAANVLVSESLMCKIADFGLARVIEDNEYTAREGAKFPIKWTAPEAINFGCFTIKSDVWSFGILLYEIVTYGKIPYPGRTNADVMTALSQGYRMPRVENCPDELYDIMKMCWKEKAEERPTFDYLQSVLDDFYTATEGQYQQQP
Method in brief: (§2)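 Using immobilised substrate copolymers (poly(Glu,Tyr) 4:1; poly(Arg,Ser) 3:1) and [33P]ATP, purified fusion kinases were allowed to react; plates were then rinsed in 0.5% phosphoric acid and counted in a scintillation detector. Half-maximal inhibition of label transfer defines IC50.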

Src = molecular target: T3, Src (Homo sapiens, UniProt P12931); assay: Kinase inhibition assay (33P transfer), Src; conditions: Table 6, Src-1 kinase inhibition class
T3 construct: Kinases are expressed as either kinase domains or full length constructs; made in house
Method in brief: as §2

Fyn = molecular target: T4, Fyn (Homo sapiens, UniProt P06241); assay: Kinase inhibition assay (33P transfer), Fyn; conditions: read-out: Fyn-1
T4 construct: Kinases are expressed as either kinase domains or full length constructs; made in house
T4 sequence (P06241 whole entry, species assumed, the tested form may be a part): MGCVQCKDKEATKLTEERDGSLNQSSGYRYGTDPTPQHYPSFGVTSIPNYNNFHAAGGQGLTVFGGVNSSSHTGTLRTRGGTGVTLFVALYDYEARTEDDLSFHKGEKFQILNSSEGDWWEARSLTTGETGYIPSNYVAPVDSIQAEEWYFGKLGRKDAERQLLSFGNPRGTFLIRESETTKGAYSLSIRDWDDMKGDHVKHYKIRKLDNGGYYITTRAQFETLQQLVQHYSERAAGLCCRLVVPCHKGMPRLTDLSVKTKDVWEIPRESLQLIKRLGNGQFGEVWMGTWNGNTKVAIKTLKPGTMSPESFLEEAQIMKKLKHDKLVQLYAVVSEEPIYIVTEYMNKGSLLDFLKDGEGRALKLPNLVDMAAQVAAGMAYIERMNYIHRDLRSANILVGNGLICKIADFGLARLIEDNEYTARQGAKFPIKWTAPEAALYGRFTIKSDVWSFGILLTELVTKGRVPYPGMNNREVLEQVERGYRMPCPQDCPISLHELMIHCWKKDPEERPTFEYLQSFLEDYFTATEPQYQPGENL
Method in brief: as §2

Zap-70 = molecular target: T5, Zap-70 (Homo sapiens, UniProt P43403); assay: Kinase inhibition assay (33P transfer), Zap-70; conditions: read-out: Zap-1
T5 construct: Kinases are expressed as either kinase domains or full length constructs; made in house
T5 sequence (P43403 1-619): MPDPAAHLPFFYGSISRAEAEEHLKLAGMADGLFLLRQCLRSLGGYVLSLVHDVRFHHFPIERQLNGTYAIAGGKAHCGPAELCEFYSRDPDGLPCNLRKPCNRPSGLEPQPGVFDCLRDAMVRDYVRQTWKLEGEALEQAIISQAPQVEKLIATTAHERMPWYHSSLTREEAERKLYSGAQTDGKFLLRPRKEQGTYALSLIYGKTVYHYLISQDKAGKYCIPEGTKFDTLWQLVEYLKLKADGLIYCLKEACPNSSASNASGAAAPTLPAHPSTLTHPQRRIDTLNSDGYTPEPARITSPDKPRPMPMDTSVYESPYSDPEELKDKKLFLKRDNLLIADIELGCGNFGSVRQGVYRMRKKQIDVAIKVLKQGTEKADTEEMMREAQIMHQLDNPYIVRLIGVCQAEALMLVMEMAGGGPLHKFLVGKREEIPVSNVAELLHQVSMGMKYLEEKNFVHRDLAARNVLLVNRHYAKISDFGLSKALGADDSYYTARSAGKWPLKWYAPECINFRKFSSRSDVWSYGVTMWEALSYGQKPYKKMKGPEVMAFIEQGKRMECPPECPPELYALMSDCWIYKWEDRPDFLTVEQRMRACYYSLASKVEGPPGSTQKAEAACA
Method in brief: as §1

Itk = molecular target: T6, Itk (Homo sapiens, UniProt Q08881); assay: Kinase inhibition assay (33P transfer), Itk; conditions: read-out: Itk-1
T6 construct: Kinases are expressed as either kinase domains or full length constructs; made in house
T6 sequence (Q08881 1-620): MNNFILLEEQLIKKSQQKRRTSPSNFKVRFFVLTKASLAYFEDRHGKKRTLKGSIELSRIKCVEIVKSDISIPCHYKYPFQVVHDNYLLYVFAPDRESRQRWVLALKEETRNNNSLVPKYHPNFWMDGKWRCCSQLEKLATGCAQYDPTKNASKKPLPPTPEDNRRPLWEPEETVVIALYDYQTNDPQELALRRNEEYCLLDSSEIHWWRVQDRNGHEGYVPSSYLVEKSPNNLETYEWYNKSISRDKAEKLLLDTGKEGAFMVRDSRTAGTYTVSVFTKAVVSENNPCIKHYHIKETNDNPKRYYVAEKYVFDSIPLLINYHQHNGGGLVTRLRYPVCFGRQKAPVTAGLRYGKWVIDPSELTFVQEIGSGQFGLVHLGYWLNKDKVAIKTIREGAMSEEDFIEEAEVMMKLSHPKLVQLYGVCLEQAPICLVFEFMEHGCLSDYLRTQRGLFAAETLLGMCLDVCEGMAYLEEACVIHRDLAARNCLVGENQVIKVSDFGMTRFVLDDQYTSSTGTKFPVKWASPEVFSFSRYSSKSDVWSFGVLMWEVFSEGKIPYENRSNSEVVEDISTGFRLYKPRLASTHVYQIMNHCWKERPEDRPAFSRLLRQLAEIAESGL
Method in brief: as §2

EGFR = molecular target: T7, EGFR (Homo sapiens, UniProt P00533); assay: Kinase inhibition assay (33P transfer), EGFR; conditions: Table 2, kinase inhibition class; read-out: EGFR-1
T7 construct: Kinases are expressed as either kinase domains or full length constructs; made in house
Method in brief: as §2

ErbB2 = molecular target: T8, ErbB2 (Homo sapiens, UniProt P04626); assay: Kinase inhibition assay (33P transfer), ErbB2; conditions: read-out: ErbB2-2
T8 construct: Kinases are expressed as either kinase domains or full length constructs; made in house
T8 sequence (P04626 23-1255, species assumed): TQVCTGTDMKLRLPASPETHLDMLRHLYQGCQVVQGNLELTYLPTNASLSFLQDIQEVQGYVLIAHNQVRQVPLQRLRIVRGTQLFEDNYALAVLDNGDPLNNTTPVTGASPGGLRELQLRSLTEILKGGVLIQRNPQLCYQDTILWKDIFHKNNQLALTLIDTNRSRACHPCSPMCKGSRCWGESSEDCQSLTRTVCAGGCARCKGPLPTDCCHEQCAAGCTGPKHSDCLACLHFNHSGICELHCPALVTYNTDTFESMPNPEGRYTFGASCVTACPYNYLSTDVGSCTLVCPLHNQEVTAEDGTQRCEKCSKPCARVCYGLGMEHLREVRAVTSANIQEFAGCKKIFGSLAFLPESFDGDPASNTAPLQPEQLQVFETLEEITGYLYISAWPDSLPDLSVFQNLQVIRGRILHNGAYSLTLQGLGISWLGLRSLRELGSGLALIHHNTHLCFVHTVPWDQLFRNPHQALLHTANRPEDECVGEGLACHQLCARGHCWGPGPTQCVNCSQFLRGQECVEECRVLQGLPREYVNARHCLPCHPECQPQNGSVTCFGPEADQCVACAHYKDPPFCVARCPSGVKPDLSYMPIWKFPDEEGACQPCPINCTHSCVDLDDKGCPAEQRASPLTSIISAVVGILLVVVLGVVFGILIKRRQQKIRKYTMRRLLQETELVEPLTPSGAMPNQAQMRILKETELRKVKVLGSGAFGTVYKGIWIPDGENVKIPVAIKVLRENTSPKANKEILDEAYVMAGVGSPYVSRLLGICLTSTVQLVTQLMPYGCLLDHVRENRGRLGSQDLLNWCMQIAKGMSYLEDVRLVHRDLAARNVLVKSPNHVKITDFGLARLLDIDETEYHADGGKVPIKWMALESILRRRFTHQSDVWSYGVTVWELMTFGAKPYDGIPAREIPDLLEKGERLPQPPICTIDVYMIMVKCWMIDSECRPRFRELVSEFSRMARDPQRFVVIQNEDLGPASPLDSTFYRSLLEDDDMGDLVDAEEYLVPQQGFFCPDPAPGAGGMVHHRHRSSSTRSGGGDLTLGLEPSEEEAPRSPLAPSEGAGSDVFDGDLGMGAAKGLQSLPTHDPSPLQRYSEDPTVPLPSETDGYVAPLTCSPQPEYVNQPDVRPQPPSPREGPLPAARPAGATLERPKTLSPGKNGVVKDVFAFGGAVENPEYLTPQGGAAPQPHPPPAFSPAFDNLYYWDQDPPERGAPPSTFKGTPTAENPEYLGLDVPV
Method in brief: as §2

Kdr = molecular target: T9, Kdr (Homo sapiens, UniProt P35968); assay: Kinase inhibition assay (33P transfer), Kdr; conditions: read-out: KDR-1
T9 construct: Kinases are expressed as either kinase domains or full length constructs; made in house
Method in brief: as §1

Flt-1 = molecular target: T10, Flt-1 (Homo sapiens, UniProt P17948); assay: Kinase inhibition assay (33P transfer), Flt-1
T10 construct: Kinases are expressed as either kinase domains or full length constructs; made in house
Method in brief: as §2

c-Met = molecular target: T11, c-Met (Homo sapiens, UniProt P08581); assay: Kinase inhibition assay (33P transfer), c-Met; conditions: Table 2, kinase inhibition class; read-out: Met-1
T11 construct: Kinases are expressed as either kinase domains or full length constructs; made in house
Method in brief: as §2

AKT = molecular target: T12, AKT (Homo sapiens, UniProt Q9Y243); assay: Kinase inhibition assay (33P transfer), AKT; conditions: Table 2, kinase inhibition class; read-out: AKT3-1
T12 construct: Kinases are expressed as either kinase domains or full length constructs; made in house
T12 sequence (Q9Y243 whole entry, the tested form may be a part): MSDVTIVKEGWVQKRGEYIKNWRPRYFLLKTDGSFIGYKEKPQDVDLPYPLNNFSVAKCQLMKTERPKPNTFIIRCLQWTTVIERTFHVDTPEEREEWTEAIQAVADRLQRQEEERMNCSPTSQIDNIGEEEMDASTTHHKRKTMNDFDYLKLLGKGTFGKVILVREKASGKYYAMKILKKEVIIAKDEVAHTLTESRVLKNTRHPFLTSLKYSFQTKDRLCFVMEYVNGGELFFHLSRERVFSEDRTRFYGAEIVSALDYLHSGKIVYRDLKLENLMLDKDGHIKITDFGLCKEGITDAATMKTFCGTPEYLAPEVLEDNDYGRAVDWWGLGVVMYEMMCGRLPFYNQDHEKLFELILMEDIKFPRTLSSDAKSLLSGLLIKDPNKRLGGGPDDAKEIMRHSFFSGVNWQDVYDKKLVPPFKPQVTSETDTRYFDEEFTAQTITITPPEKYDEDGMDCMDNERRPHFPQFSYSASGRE
Method in brief: as §1

IGFR-1 = molecular target: T13, IGFR-1 (Homo sapiens, UniProt P08069); assay: Kinase inhibition assay, IGFR-1 (Table 2); conditions: Table 2, kinase inhibition class
T13 construct: Kinases are expressed as either kinase domains or full length constructs; made in house

PDGFRB [1] = molecular target: T14, PDGFRB (Homo sapiens, UniProt P09619); assay: Kinase inhibition assay (33P transfer), PDGFRB; conditions: read-out: PDGFRB-1
T14 construct: Kinases are expressed as either kinase domains or full length constructs; made in house
T14 sequence (P09619 33-1106, species assumed): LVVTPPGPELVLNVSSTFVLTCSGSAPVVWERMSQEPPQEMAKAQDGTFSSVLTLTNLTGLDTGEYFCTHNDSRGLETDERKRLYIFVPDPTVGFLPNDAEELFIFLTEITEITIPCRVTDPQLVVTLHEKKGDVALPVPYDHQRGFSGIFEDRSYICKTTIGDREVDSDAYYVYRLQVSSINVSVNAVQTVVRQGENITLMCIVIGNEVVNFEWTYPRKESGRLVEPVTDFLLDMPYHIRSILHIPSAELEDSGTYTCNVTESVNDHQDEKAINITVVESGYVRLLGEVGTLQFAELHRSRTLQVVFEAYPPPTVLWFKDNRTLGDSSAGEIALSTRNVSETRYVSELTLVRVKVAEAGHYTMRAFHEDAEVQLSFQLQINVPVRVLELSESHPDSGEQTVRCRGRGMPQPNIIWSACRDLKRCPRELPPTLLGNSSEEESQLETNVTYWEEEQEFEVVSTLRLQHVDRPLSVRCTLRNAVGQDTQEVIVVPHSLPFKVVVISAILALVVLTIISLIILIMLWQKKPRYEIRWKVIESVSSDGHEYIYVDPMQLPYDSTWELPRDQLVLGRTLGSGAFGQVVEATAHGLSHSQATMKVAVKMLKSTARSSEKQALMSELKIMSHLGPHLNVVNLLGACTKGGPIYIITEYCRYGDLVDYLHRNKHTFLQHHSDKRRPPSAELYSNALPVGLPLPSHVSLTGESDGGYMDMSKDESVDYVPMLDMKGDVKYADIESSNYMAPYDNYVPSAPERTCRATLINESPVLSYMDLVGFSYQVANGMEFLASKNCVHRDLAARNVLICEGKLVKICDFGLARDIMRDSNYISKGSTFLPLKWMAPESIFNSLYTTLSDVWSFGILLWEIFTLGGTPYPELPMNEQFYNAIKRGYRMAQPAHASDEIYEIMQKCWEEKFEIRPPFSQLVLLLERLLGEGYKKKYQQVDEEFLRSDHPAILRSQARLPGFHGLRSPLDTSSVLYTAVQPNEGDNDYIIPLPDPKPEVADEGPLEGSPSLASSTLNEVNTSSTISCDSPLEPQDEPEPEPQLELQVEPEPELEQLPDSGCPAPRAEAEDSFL

Hck-1 = molecular target: T15, Hck-1 (Homo sapiens, UniProt P08631); assay: Kinase inhibition assay (33P transfer), Hck; conditions: Table 6, Hck-1 kinase inhibition class
T15 construct: Kinases are expressed as either kinase domains or full length constructs; made in house

ErbB4 = molecular target: T16, ErbB4 (Homo sapiens, UniProt Q15303); assay: Kinase inhibition assay (33P transfer), ErbB4; conditions: read-out: ErbB4-1
T16 construct: Kinases are expressed as either kinase domains or full length constructs; made in house

Ret-1 = molecular target: T17, Ret-1 (Homo sapiens, UniProt P07949); assay: Kinase inhibition assay (33P transfer), Ret; conditions: Table 6, Ret-1 kinase inhibition class
T17 construct: Kinases are expressed as either kinase domains or full length constructs; made in house
T17 sequence (P07949 29-1114): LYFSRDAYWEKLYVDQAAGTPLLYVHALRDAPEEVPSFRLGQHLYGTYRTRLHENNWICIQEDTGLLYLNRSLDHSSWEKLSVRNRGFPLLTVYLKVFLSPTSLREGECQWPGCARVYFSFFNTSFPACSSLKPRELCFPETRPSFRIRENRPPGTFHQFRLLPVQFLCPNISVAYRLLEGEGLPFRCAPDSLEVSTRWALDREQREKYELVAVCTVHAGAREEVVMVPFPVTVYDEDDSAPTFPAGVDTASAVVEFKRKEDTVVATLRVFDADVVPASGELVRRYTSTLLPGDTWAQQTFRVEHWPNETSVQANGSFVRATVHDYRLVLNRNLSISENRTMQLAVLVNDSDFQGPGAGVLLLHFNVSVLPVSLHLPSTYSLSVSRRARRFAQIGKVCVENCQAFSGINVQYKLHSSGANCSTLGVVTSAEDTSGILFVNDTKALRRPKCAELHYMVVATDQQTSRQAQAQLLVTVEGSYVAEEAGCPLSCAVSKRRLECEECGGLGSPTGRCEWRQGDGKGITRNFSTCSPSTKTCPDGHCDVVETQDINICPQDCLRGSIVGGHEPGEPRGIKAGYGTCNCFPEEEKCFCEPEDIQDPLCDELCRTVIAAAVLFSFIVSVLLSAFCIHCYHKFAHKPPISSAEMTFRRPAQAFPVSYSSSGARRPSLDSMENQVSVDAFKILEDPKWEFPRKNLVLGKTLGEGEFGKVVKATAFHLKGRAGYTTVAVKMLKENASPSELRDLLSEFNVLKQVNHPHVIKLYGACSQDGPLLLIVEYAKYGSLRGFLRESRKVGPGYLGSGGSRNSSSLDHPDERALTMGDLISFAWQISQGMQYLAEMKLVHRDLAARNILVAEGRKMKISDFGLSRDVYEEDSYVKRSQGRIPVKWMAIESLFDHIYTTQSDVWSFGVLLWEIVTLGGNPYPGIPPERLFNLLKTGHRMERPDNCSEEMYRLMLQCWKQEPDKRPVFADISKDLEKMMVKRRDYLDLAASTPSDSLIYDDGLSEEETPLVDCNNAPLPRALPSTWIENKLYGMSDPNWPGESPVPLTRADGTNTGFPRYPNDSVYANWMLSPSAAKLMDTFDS

FGFR1 = molecular target: T18, FGFR1 (Homo sapiens, UniProt P11362); assay: Kinase inhibition assay (33P transfer), FGFR1; conditions: read-out: FGFR1-1
T18 construct: Kinases are expressed as either kinase domains or full length constructs; made in house

PDGFRB [2] = molecular target: T14, PDGFRB; assay: Kinase inhibition assay (33P transfer), PDGFRB; conditions: read-out: PDGFRB-1; remark: listed apart in the source

Row | SMILES | IC50 (Lck) | IC50 (Lyn) | IC50 (Src) | IC50 (Fyn) | IC50 (Zap-70) | IC50 (Itk) | IC50 (EGFR) | IC50 (ErbB2) | IC50 (Kdr) | IC50 (Flt-1) | IC50 (c-Met) | IC50 (AKT) | IC50 (IGFR-1) | IC50 (PDGFRB [1]) | IC50 (Hck-1) | IC50 (ErbB4) | IC50 (Ret-1) | IC50 (FGFR1) | IC50 (PDGFRB [2])
1 | Cc1cccc(Nc2ncnc(N3CCCc4ccc(C(F)(F)F)cc43)n2)c1 [Compound 582] | 6.23 to 9.08 µM | > 11.7 µM | > 11.7 µM | > 11.7 µM | > 11.7 µM | > 11.7 µM | < 1.04 µM | 1.04 to 6.23 µM | 6.23 to 9.08 µM | > 11.7 µM | 9.08 to 11.7 µM | > 11.7 µM | > 11.7 µM |  |  | > 11.7 µM | 6.23 to 9.08 µM | 1.04 to 6.23 µM | > 11.7 µM
2 | COc1cc(Nc2ncnc(Nc3ccc4c(cnn4Cc4ccccc4)c3)n2)cc(OC)c1OCCN1CCOCC1 [Compound 559] | < 0.687 µM | < 0.687 µM | < 0.687 µM | < 0.687 µM | > 7.72 µM | 4.12 to 6.01 µM | < 0.687 µM | < 0.687 µM | 0.687 to 4.12 µM | > 7.72 µM | > 7.72 µM | > 7.72 µM | 0.687 to 4.12 µM | < 0.687 µM | 4.12 to 6.01 µM | < 0.687 µM | < 0.687 µM | 0.687 to 4.12 µM | 
3 | CCN(CC)CCOc1cc(Nc2ncnc(Nc3cc(OC)c(OC)c(OC)c3)n2)ccc1OC [Compound 600] | < 0.802 µM | < 0.802 µM | 0.802 to 4.81 µM | 0.802 to 4.81 µM | > 9.03 µM | > 9.03 µM | > 9.03 µM | 4.81 to 7.02 µM | 0.802 to 4.81 µM | > 9.03 µM | > 9.03 µM | > 9.03 µM | > 9.03 µM | 0.802 to 4.81 µM | > 9.03 µM | 0.802 to 4.81 µM | 0.802 to 4.81 µM | > 9.03 µM | 

Next, values leading:

Row | IC50 (Lck) | IC50 (Lyn) | IC50 (Src) | IC50 (Fyn) | IC50 (Zap-70) | IC50 (Itk) | IC50 (EGFR) | IC50 (ErbB2) | IC50 (Kdr) | IC50 (Flt-1) | IC50 (c-Met) | IC50 (AKT) | IC50 (IGFR-1) | IC50 (PDGFRB [1]) | IC50 (Hck-1) | IC50 (ErbB4) | IC50 (Ret-1) | IC50 (FGFR1) | IC50 (PDGFRB [2]) | SMILES
4 | < 0.758 µM | 0.758 to 4.55 µM | < 0.758 µM | < 0.758 µM | > 8.53 µM | > 8.53 µM | > 8.53 µM | 4.55 to 6.63 µM | < 0.758 µM | < 0.758 µM | > 8.53 µM | > 8.53 µM | > 8.53 µM | < 0.758 µM | 0.758 to 4.55 µM | 6.63 to 8.53 µM | < 0.758 µM | < 0.758 µM |  | COc1cc(Nc2ncnc(-n3c(NC(CCO)c4ccccc4)nc4ccccc43)n2)cc(OC)c1OC (centres unmarked) [Compound 591]
5 | < 0.958 µM | < 0.958 µM | 0.958 to 5.75 µM | 0.958 to 5.75 µM | > 10.8 µM | > 10.8 µM | < 0.958 µM | 0.958 to 5.75 µM | < 0.958 µM | 8.38 to 10.8 µM | > 10.8 µM | > 10.8 µM | > 10.8 µM | 0.958 to 5.75 µM | 0.958 to 5.75 µM | 0.958 to 5.75 µM | < 0.958 µM | 0.958 to 5.75 µM |  | COc1cc(Nc2ncnc(N(C)c3cccc4ccccc34)n2)cc(OC)c1OC [Compound 607]
6 | 0.782 to 4.69 µM | 0.782 to 4.69 µM | 0.782 to 4.69 µM | 0.782 to 4.69 µM | > 8.8 µM | > 8.8 µM | 0.782 to 4.69 µM | 0.782 to 4.69 µM | < 0.782 µM | 0.782 to 4.69 µM | > 8.8 µM | > 8.8 µM | > 8.8 µM | < 0.782 µM | > 8.8 µM | 4.69 to 6.84 µM | < 0.782 µM | < 0.782 µM |  | CCC(Nc1nc2ccccc2n1-c1ncnc(Nc2cc(OC)c(OC)c(OC)c2)n1)c1ccccc1 (centres unmarked) [Compound 592]
